Laboratory results: patent US4698332A, “Expectorant” (Mect Corporation, priority 1984, dated 1987)

Experiments:
[1] = Physicochemical properties (pH, yield value, spinnability) of treated sputum (Example 5); design: species or system human; settings: for Yield value after treatment / pH of sputum after treatment / Spinnability after treatment: 2 mg
Protocol: (§1) Mucociliary transport rate (hereinunder referred to as MTR), i.e. the rate of transport of sputum by cilia, was measured using frog palatine mucosa. At the same time, physicochemical properties of the sputum before and after application of N-acetylneuraminic acid were compared.
(§2) The sputum used as the specimens was collected from 12 samples of patients suffering from chronic obstructive lung disease. N-acetylneuraminic acid was added to the specimen sputum in the ratios of 5 mg/ml sputum and 1 mg/ml sputum, and the specimen was left for 1 hour at 4° C. before measurement. Sputum which has not been treated by N-acetylneuraminic acid was used as a comparison example. A palatine mucosa obtained from a decapitated frog head was kept at constant temperature and humidity until the mucus liquid of the frog itself depleted. The specimen sputum was placed on the dried palatine mucosa, and the speed of movement of the sputum was observed through a noumenal microscope, thus measuring the MTR. The pH value of the sputum was measured by means of an electronic model HM-SAp pH meter, while the spinnability was measured by a device developed by Nagaoka and Yamanaka (disclosed in Transactions of 2nd Symposium of Cough and sputum, published July 20, 1979). The yield value was measured by Dulfano's double-tube method which is shown in the American Review of Respiratory Diseases, Vol. 104, p88, 1971.

[2] = Acute toxicity test of N-acetylneuraminic acid, rats (Example 6); type: in vivo, SD rats; settings: rat, in vivo
Protocol: (§3) A test was conducted to examine the acute toxicity of N-acetylneuraminic acid, using mice and rats, by means of intravenous injection, subcutaneous injection, per os inhalation.
(§4) SD rats: 6 weeks old (7 weeks old in case of inhalation)
(§5) 13 to 15% (W/V) dissolved in distilled water
(§6) By Litchfield-Wilcoxon method.
(§7) Inhalation was conducted by 1hr exposure to mist.

rats = test: as above; type: in vivo, SD rats; settings: inhalation, 1hr exposure to mist
Protocol: as §3, §4, §5, §6, §7

palatine mucosa of frog = test: Ciliary movement of frog palatine mucosa, particle transport method (Example 3, Tables 1-3); type: cell-based, bull frog
Protocol: Bull frogs (furnished by Saitama Test Animal) weighing 300 to 450 g were used regardless of sex.
N-acetylneuraminic acid and calcium salt of N-acetylneuraminic acid (provided by Kanto Ishiseiyaku Kabushiki Kaisha), as well as acetylcholine chloride (furnished by Sigma Kabushiki Kaisha) were used as the test substances.
Mucociliary transport was measured by the particle transport method. After decapitation of a frog, the surface of the palatine mucosa was separated with minimized damage and of fixed to a cork plate in a Petri dish which was then filled with 20 ml of Ringer's solution (trishydrochloric acid). The palatine mucosa was left in this state for 30 minutes before the commencement of measurement. For measurement, the Ringer's solution was removed and fine pieces of cork (capable of passing pharmaceutical sieve No. 5 but not capable of passing No. 6) were placed on the surface of the palatine mucosa, and the time (in seconds) required for the cork piece to move 1 cm was measured. The duration of movement, i.e., moving speed, was measured also in the state immediately after the removal of the Ringer's solution or pharmaceutical solution.

[3] = tested on: ciliated cells from human airway and frog palate; test: Rotation of ciliated cell groups (Example 4); type: cell-based
Text: Using ciliated cells from human airway and frog palate, rotation of cell groups due to ciliary beat was observed before and after application of N-acetylneuraminic acid and calcium salt of N-acetylneuraminic acid, in order to confirm the effect of these agents on the cilitated cells.
Human ciliated cells were collected from a normal trachea by means of a branchoscope, the ciliated cells being separated by rubbing the bronchus while observing through the branchoscope, while the collection of frog cilitated cells was conducted by rubbing the palatine mucosta, without being specially careful. […] The groups of cells were transferred to a cover slip and one drop of chicken plasma (prepared by Difco Company) and one drop of 50% chicken embryo extract were added to the cells, thus forming clots. The rotary motion in the clots was recorded by means of a video recorder and the number of rotations per minute was measured.

[4] = Acute toxicity test of N-acetylneuraminic acid, mice (Example 6); design: species or system ICR mice; settings: mouse, in vivo
Protocol: as §3, §5, §6

[5] = tested on: sputum of patients with chronic obstructive lung disease on frog palatine mucosa; test: Mucociliary transport rate (MTR) of treated sputum on frog palatine mucosa (Example 5); design: species or system human sputum; frog palatine mucosa; settings: for MTR after treatment: 2 mg
Protocol: as §1, §2

[6] = sample 5 (viscous sputum, 2 ml), before 18

CC(=O)N[C@H]1[C@H]([C@H](O)[C@H](O)CO)OC(O)(C(=O)O)C[C@@H]1O (stereo partly shown) [N-acetylneuraminic acid]
Change of spinnability of sputum ([1]; 1 mg/ml): five samples showed a reduction, while one sample showed a slight increase
Change of yield value of sputum ([1]; 1 mg/ml): Increase in the yield value was observed in three samples, while three samples showed a reduction. The yield value was unchanged in the remaining one sample
Change of sputum pH value ([1]; 1 mg/ml, six samples): five out of six samples treated with 1 mg/ml of N-acetylneuraminic acid showed a reduction in pH value (pH 7.31 0.40), while the remaining one sample showed a slight increase in pH value
Yield value after treatment ([1]; sample 1 (viscous sputum, 2 ml), before 3.7): 11.5 mmH2 O
pH of sputum after treatment ([1]; sample 1 (viscous sputum, 2 ml), before 7.72): 7.35
Spinnability after treatment ([1]; sample 1 (viscous sputum, 2 ml), before 55): 19 mm
Yield value after treatment ([1]; sample 2 (viscous sputum, 2 ml), before 0.1): 0.1 mmH2 O
pH of sputum after treatment ([1]; sample 2 (viscous sputum, 2 ml), before 7.52): 7.62
Spinnability after treatment ([1]; sample 2 (viscous sputum, 2 ml), before 10): 3 mm
Yield value after treatment ([1]; sample 3 (pus sputum, 2 ml), before 2.7): 0.7 mmH2 O
Spinnability after treatment ([1]; sample 3 (pus sputum, 2 ml), before 5): 2 mm
pH of sputum after treatment ([1]; sample 3 (pus sputum, 2 ml), before 7.98): 7.20
Yield value after treatment ([1]; sample 4 (viscous sputum, 2 ml), before 1.9): 3.2 mmH2 O
pH of sputum after treatment ([1]; sample 4 (viscous sputum, 2 ml), before 6.98): 6.84
Spinnability after treatment ([1]; sample 4 (viscous sputum, 2 ml), before 22): 12 mm
Yield value after treatment ([1]; sample 5 (viscous sputum, 2 ml), before 2.2): 3.1 mmH2 O
pH of sputum after treatment ([1]; sample 5 (viscous sputum, 2 ml), before 7.24): 6.94
Spinnability after treatment [1, 6]: 16 mm
pH of sputum after treatment ([1]; sample 6 (viscous sputum, 2 ml), before 8.16): 7.88
Yield value after treatment ([1]; sample 6 (viscous sputum, 2 ml), before 14.3): 7.5 mmH2 O
Spinnability after treatment ([1]; sample 6 (viscous sputum, 2 ml), before 22): 26 mm
LD50 at 336 h ([2]; iv, rats F, 95% 1741-2030): 1880 mg/kg
LD50 at 336 h ([2]; iv, rats M, 95% 1748-2001): 1870 mg/kg
LD50 at 336 h ([2]; po, per os, rats F): > 5000 mg/kg
LD50 at 336 h ([2]; po, per os, rats M): > 5000 mg/kg
LD50 at 336 h ([2]; sc, subcutaneous, rats F): > 5000 mg/kg
LD50 at 336 h ([2]; sc, subcutaneous, rats M): > 5000 mg/kg
LD50 (rats; rats F): > 4.33 g/m^3
LD50 (rats; rats M): > 4.33 g/m^3
Movement (palatine mucosa of frog; 10^-4 g/ml, frog number 1): 17.3 s/cm
Movement (palatine mucosa of frog; 10^-4 g/ml, frog number 2): 22.0 s/cm
Movement (palatine mucosa of frog; 10^-4 g/ml, frog number 3): 20.7 s/cm
Movement (palatine mucosa of frog; 10^-4 g/ml, frog number 4): 22.0 s/cm
Movement (palatine mucosa of frog; 10^-5 g/ml, frog number 1): 21.3 s/cm
Acceleration (palatine mucosa of frog; 10^-5 g/ml, frog number 1, control = 0): 33.4%
Movement (palatine mucosa of frog; 10^-5 g/ml, frog number 2): 27.3 s/cm
Acceleration (palatine mucosa of frog; 10^-5 g/ml, frog number 2, control = 0): 16.5%
Movement (palatine mucosa of frog; 10^-5 g/ml, frog number 3): 28.7 s/cm
Acceleration (palatine mucosa of frog; 10^-5 g/ml, frog number 3, control = 0): 28.2%
Movement (palatine mucosa of frog; 10^-5 g/ml, frog number 4): 24.7 s/cm
activation at 10 µg/mL (palatine mucosa of frog; 10^-5 g/ml, frog number 4, control = 0, read-out: Acceleration): 31.4%
Effect on ciliary movement of palatine mucosa (palatine mucosa of frog; Tables 1 and 3): acceleration of the ciliary movement of palatine mucosa in a certain dose-dependency
Ciliary movement promoting effect compared with acetylcholine (palatine mucosa of frog; acetylcholine control at 10^-5 and 10^-4): substantially the same ciliary movement promoting effect as the acetylcholine
Increase of rotation speed (revolutions per minute) over Medium 199 at plateau ([3]; 10^-3 to 10^-2 mg/ml, 5, 10 and 15 minutes after application): about 25%
Effect on rotary motion of the cilium cells ([3]; 10^-4 to 10^-1 mg/ml): gradually accelerated starting immediately after the application
LD50 at 336 h ([4]; iv, mice F, 95% 2137-2925): 2500 mg/kg
LD50 at 336 h ([4]; iv, mice M, 95% 1441-2008): 1700 mg/kg
LD50 at 336 h ([4]; po, per os, mice F): > 5000 mg/kg
LD50 at 336 h ([4]; po, per os, mice M): > 5000 mg/kg
LD50 at 336 h ([4]; sc, subcutaneous, mice F): > 5000 mg/kg
LD50 at 336 h ([4]; sc, subcutaneous, mice M): > 5000 mg/kg
Change of MTR of sputum ([5]; 1 mg/ml, samples with reduced spinnability): tendency to increased MTR
MTR after treatment ([5]; sample 1 (viscous sputum, 2 ml), before 19): 38 mm/min
MTR after treatment ([5]; sample 2 (viscous sputum, 2 ml), before 8): 19 mm/min
MTR after treatment ([5]; sample 3 (pus sputum, 2 ml), before 20): 27 mm/min
MTR after treatment ([5]; sample 4 (viscous sputum, 2 ml), before 25): 29 mm/min
MTR after treatment [5, 6]: 30 mm/min
MTR after treatment ([5]; sample 6 (viscous sputum, 2 ml), before 15): 18 mm/min
